# Measured values published in the NIST ThermoML archive (doi:10.1016/j.jct.2012.08.020).
# ± gives the expanded uncertainty stated by the source.
# Experiment: xn = mol fraction of the nth substance listed
# Conditions: Fluid (supercritical or subcritical phases)
smiles,measurement,setting,value
"CCCCC(COC(=O)C(=O)OCC)OC(=O)C(=O)OCC (stereo not given) [1,2-hexanediol bis-(ethoxycarbonylformate)] + O=C=O",mass density,"313 K, x1 = 0.00125",556.08 ± 1.7 kg/m3
same,mass density,"313 K, x1 = 0.00238",584.52 ± 1.9 kg/m3
same,mass density,"313 K, x1 = 0.00345",606.4 ± 2.2 kg/m3
same,mass density,"313 K, x1 = 0.00447",624.05 ± 2.4 kg/m3
same,mass density,"313 K, x1 = 0.00552",631.74 ± 2.5 kg/m3
same,mass density,"333 K, x1 = 0.00179",389.65 ± 3.3 kg/m3
same,mass density,"333 K, x1 = 0.00331",420.8 ± 1.4 kg/m3
same,mass density,"333 K, x1 = 0.00471",443.89 ± 1.5 kg/m3
same,mass density,"333 K, x1 = 0.00608",458.89 ± 1.5 kg/m3
same,mass density,"333 K, x1 = 0.00748",466.23 ± 1.7 kg/m3
same,mass density,"353 K, x1 = 0.00251",277.12 ± 1.1 kg/m3
same,mass density,"353 K, x1 = 0.00456",305.62 ± 0.85 kg/m3
same,mass density,"353 K, x1 = 0.00632",331.22 ± 0.62 kg/m3
same,mass density,"353 K, x1 = 0.00821",339.94 ± 0.86 kg/m3
same,mass density,"353 K, x1 = 0.00988",353.15 ± 1.1 kg/m3
"CCCCC(COC(=O)C(=O)OC)OC(=O)C(=O)OC (stereo not given) [1,2-hexanediol bis-(methoxycarbonylformate)] + O=C=O",mass density,"313 K, x1 = 0.00173",436.05 ± 1.2 kg/m3
same,mass density,"313 K, x1 = 0.00309",492.75 ± 1.8 kg/m3
same,mass density,"313 K, x1 = 0.00442",517.19 ± 2 kg/m3
same,mass density,"313 K, x1 = 0.00567",538.22 ± 2.2 kg/m3
same,mass density,"313 K, x1 = 0.00686",556.08 ± 2.4 kg/m3
same,mass density,"333 K, x1 = 0.00241",316.53 ± 4.4 kg/m3
same,mass density,"333 K, x1 = 0.00416",366.67 ± 1.1 kg/m3
same,mass density,"333 K, x1 = 0.00576",397.42 ± 1.1 kg/m3
same,mass density,"333 K, x1 = 0.00739",413.01 ± 1.3 kg/m3
same,mass density,"333 K, x1 = 0.00874",436.26 ± 1.3 kg/m3
same,mass density,"353 K, x1 = 0.00318",239.41 ± 0.77 kg/m3
same,mass density,"353 K, x1 = 0.00558",273.18 ± 0.46 kg/m3
same,mass density,"353 K, x1 = 0.00729",314.05 ± 0.23 kg/m3
same,mass density,"353 K, x1 = 0.00921",331.22 ± 0.73 kg/m3
same,mass density,"353 K, x1 = 0.01094",348.73 ± 0.73 kg/m3
"CCCCC(O)CO (stereo not given) [1,2-hexanediol] + O=C=O",mass density,"313 K, x1 = 0.00073",677.07 ± 1.3 kg/m3
same,mass density,"313 K, x1 = 0.00136",730.15 ± 1.8 kg/m3
same,mass density,"313 K, x1 = 0.00197",756.91 ± 2.1 kg/m3
same,mass density,"313 K, x1 = 0.00256",778.16 ± 2.3 kg/m3
same,mass density,"313 K, x1 = 0.0031",802.54 ± 2.6 kg/m3
same,mass density,"333 K, x1 = 0.00091",547.92 ± 1.1 kg/m3
same,mass density,"333 K, x1 = 0.00169",589.92 ± 1.1 kg/m3
same,mass density,"333 K, x1 = 0.00241",619.81 ± 1.2 kg/m3
same,mass density,"333 K, x1 = 0.00312",638.84 ± 1.2 kg/m3
same,mass density,"333 K, x1 = 0.0038",655.62 ± 1.2 kg/m3
same,mass density,"353 K, x1 = 0.00109",457.46 ± 0.91 kg/m3
same,mass density,"353 K, x1 = 0.00196",506.95 ± 0.42 kg/m3
same,mass density,"353 K, x1 = 0.00281",530.61 ± 0.23 kg/m3
same,mass density,"353 K, x1 = 0.00363",549.26 ± 0.2 kg/m3
same,mass density,"353 K, x1 = 0.00442",563.72 ± 0.3 kg/m3
